# Data: patent US5674977A, “Branched synthetic peptide conjugate” (The Ontario Cancer Institute, priority 1994, dated 1997)
# Numbered stars: 1 amine (or outer) side, 2 acyl side, 3 side chain; on linkers, the order of the positions; unused ones are H or OH. Square brackets hold non-standard residues; d marks the D form. Peptide text beside a SMILES is read from it. X1 = C[C@@H](O)[C@@H](C(=O)[*:2])N(c1c2ccccc2nc2ccccc12)[*:1]
# Test system: CHO cells
# Assay: MTT cell viability (cytotoxicity) assay
# Format: cell-based, Chinese hamster
# Conditions: concentrations as high as 100 μM, 2 hour incubation period
# Description: The cytotoxicity of peptide 1 and octopeptides 2-5 was established in Chinese hamster ovary (CHO) cells in order to select a minimal octopeptide concentration suitable for detecting the constructs by flow cytometry and fluorescence microscopy on live cells. The cytotoxicity of each construct was established using the MTT cell viability assay (FIG. 1; Mosmann, 1983). […] Linear polymers having a mass of less than 13 kDa were shown not to be cytotoxic to HeLa cells (Arnold et al., 1979). […] At a concentration of 1 μM, none of the octopeptides were cytotoxic to CHO cells (FIG. 1). […] The penetration and localization of acridine and rhodamine chromophores in viable CHO cells were observed during fluorescence microscopy and flow cytometry experiments by exposing cells to concentrations of octopeptides ranging from 0.1 to 1 μM. […]
# The quantitative MTT colorimetric assay developed by Mosmann (1983) was used to determine the toxicity of peptide constructs of the invention toward CHO cells. […] The blue MTT formazan product generated by living cells was quantified by measuring the optical density of the cellular extract at 620 nm. […] Absorbance values were translated into measurements of cell viability and reflect the average of experiments performed in triplicate.
smiles,measurement,value
"CC(C)[C@H](NC(=O)[C@H](CCCCN)NC(=O)[C@H](CCCNC(=N)N)NC(=O)[C@H](CCCCN)NC(=O)[C@H](CCCCN)NC(=O)[C@H](CCCCN)NC(=O)[C@@H]1CCCN1C(=O)[C@@H]1CCCN1C(=O)[C@@H](Nc1c2ccccc2nc2ccccc12)[C@@H](C)O)C(=O)N[C@@H](CCC(=O)O)C(=O)N[C@@H](CC(=O)O)C(=O)N1CCC[C@H]1C(=O)N[C@@H](CCCCN)C(=O)N[C@@H](CCCCN)C(=O)N[C@@H](CCCCN)C(=O)N[C@@H](CCCCN)C(=O)N[C@@H](CCCCN)C(=O)O [peptide 1, Acr-NLS-CTS] (H-[X1]PPKKKRKVEDPKKKKK-OH)",toxicity to CHO cells,not toxic
